Where a SMILES comes first, the peptide text is derived from it. The star is where a group is joined. Cbz = O=C(OCc1ccccc1)*

Experiment [1] relates to Src. Nature of the experiment: Src turnover, cycloheximide / MG132. The experiment is classed as cell-based, human. Particulars: HeLa, n = 3. On the procedure:
(§1) To assess this, HeLa cells were transfected with NMT1/2 siRNA or left untreated and analysed after addition of cycloheximide (8 h) to block protein synthesis or MG132 (4 h) to inhibit proteasomal degradation.
(§2) 124 Supplementary Fig. 5. NMT1/2 knockdown leads to an increased turnover of SFKs
(§3) 125 and overexpression of DCAF10 reduces SFK levels after NMT1/2 knockdown. […]
(§4) 130 overexpression. Untreated: purple; with NMT1/2 RNAi: blue. Individual data points are
(§5) 131 indicated (n = 2 or 3 independent biological replicates). MG132 = proteasome inhibitor;
(§6) 132 CHX = cycloheximide translational inhibitor. d) HeLa cells were treated for 72 h with and
(§7) 133 without NMT1/2 siRNA and treated with cycloheximide or MG132 for the indicated
(§8) 134 periods of time. Representative WBs are shown. Filled circles indicate treatment; empty
(§9) 135 circles indicate no treatment. e-h) Fold-change analysis of protein expression levels under
(§10) 136 the indicated conditions. Left: fold change after 8 h cycloheximide treatment of (e) Lyn,
(§11) 137 (f) Fyn, (g) Src and (h) THOC7. […]
(§12) 413 knockdown, the transfection reagent Lipofectamine RNAiMAX (Invitrogen, Thermo
(§13) 414 Fisher Scientific, Waltham, MA, USA) was used at a final dilution of 1:333 (3 μL/mL of
(§14) 415 medium). Pools of siRNAs, including siNMT1, siNMT2, siDCAF10, siZYG11B, and
(§15) 416 siZER1, or combinations of different siRNAs, were reverse transfected at a concentration […]

Experiment [2] concerns Fyn. Nature of the experiment: Fyn turnover, cycloheximide / MG132. In kind it is cell-based, human. Particulars: HeLa, n = 3. On the procedure:
as §1, §2, §3, §4, §5, §6, §7, §8, §9, §10, §11
410 HeLa, DLD-1 and all thereof derived stable cell lines, and RPE-1 cells were grown in
412 serum (FBS). Cells were counted and diluted to 100,000 cells/mL. For siRNA
as §12, §13
415 medium). […]

For another experiment, the system named is THOC7. Nature of the experiment: THOC7 turnover, cycloheximide / MG132. In kind it is cell-based, human. Particulars: NMT1/2 KD, HeLa, n = 3, 'unaffected'. The method, then:
as §1, §2, §3, §4, §5, §6, §7, §8, §9, §10, §11, §12, §13, §14, §15

Experiment [3] relates to Lyn. Nature of the experiment: Lyn turnover, cycloheximide / MG132. In kind it is cell-based, human. The conditions noted are these: HeLa, n = 3. The method, then:
as §1, §2, §3, §4, §5, §6, §7, §8, §9, §10, §11, §12, §13, §14, §15

Experiment [4] has as its system Lyn. Nature of the experiment: In vitro ubiquitination of immunoprecipitated Lyn. The experiment is classed as biochemical, human. The conditions noted are these: 250 nM E3 complex, 1 h 30°C, Ub normalized to bait, n = 3. An excerpt:
(§16) Having established cellular regulation by DCAF10 under reduced N-myristoylation, we aimed to test whether CUL4A-DDB1-DCAF10 directly ubiquitinates SFKs. […] As we expect NMT1/2 depletion to cause a destabilization of SFKs, their equal or even greater ubiquitination in IPs from untreated cells relative to NMT1/2-depleted cells was unanticipated. We speculate that (i) Nt-acetylated SFKs may degrade rapidly, preventing their accumulation upon NMT1/2 depletion; (ii) an acetylated fraction of SFKs may exist under physiological conditions; (iii) DCAF10 might recognize additional surfaces.
(§17) Reactions contained E1, UBCH5B (E2), ubiquitin, Mg-ATP in ligation buffer and were incubated with bead-bound substrates, followed by washing and immunoblot detection of ubiquitinated species (anti-ubiquitin), with loading controls (anti-Lyn, -Fyn, -Src or -GFP) (n = 3 independent enzymatic assays). Complete reagent lists, complex preparation, substrate IP conditions, wash buffers, and gel/blot parameters are provided in the Supplementary Methods and Tables.
(§18) 357 (v/v) glycerol, 2 mM TCEP, supplemented with Protease Inhibitor Cocktail), and lysed
(§19) 358 by sonication. Lysates were cleared by centrifugation at 28,000 rpm for 45 min at 4 °C […]
(§20) 382 EDTA, and loaded on a gradient gel (4–15%). Ubiquitination of substrates was assessed
(§21) 383 by WB using an anti-ubiquitin antibody. Equal substrate loading was evaluated by anti- […]

The test system of experiment [5] is Src. Nature of the experiment: In vitro ubiquitination of immunoprecipitated Src. The experiment is classed as biochemical, human. The conditions noted are these: 250 nM E3 complex, n = 3.
Source text: as §16, §17, §18, §19, §20, §21

For experiment [6], the system named is Fyn. Nature of the experiment: In vitro ubiquitination of immunoprecipitated Fyn. The conditions noted are these: 250 nM E3 complex, n = 3. The experiment is classed as biochemical, human.
Source text: as §16, §17, §18, §19, §20, §21

In a further experiment the test system is CUL4A-DDB1-DCAF10. Nature of the experiment: In vitro ubiquitination of Lyn-GFP variants by CUL4A-DDB1-DCAF10. The experiment is classed as biochemical, human. The conditions noted are these: Lyn-GFP variants, NMT1/2 siRNA.
Source text: Lyn^WT-GFP was ubiquitinated by the WT E3 complex in both conditions; however, unlike in vitro ubiquitination with endogenous Lyn (Fig. 5c, d), ubiquitination increased ~6-fold under NMT1/2 siRNA conditions. This is consistent with DCAF10 being limiting and overexpressed Lyn-GFP, accumulating an acetylated fraction available for DCAF10 in vitro. Then, we performed IPs for all Nt variants under NMT1/2 siRNA conditions (Fig. 6d, h–i). […] In vitro ubiquitination assays using untreated cell lysates led to similar results (Supplementary Fig. 7h, i).
as §17, §18
358 by sonication. Lysates were cleared by centrifugation at 28,000 rpm for 45 min at 4 °C
359 using a JA-30.50 rotor (Beckman Coulter, Brea, CA, USA). The cleared and filtered (0.8
360 µm) lysate was applied to 1 mL of Strep-Tactin®XT 4Flow® resin (iba), pre-equilibrated
361 once with wash buffer (100 mM Tris-HCl pH 8.0, 150 mM NaCl, 1 mM EDTA) and lysis
362 buffer. The lysate was incubated on a tube roller for 16 h at 4 °C. After incubation, beads
363 were washed with 50 mL of lysis buffer. Bound proteins were eluted with 10 mL of lysis
364 buffer supplemented with 50 mM biotin, after 15 min incubation on a tube roller at 4 °C.
366 Superdex 200 10/300 or 16/60 SEC column (GE Healthcare, Chicago, IL, USA),
367 preequilibrated in SEC buffer (250 mM Tris pH 7.5, 250 mM NaCl, 10% (v/v) glycerol,
370 Purified proteins were visualized during and after the purification by SDS-gels containing
371 TCE (2,2,2-trichloroethanol)62. The identity of proteins was confirmed by WB and MS.
373 In vitro ubiquitination assays
374 The in vitro ubiquitination assays were performed as previously described8. In brief,
375 E1 (50 nM), UBCH5B (250 nM), ubiquitin (1.5 µg), Mg-ATP (3 mM), ligation buffer,
376 and water were pre-mixed. The premix was divided, and either CUL4A-RBX1-
378 RBX1DDB1 (-DCAF10) (250 nM each) was added. 15 μL of each premix were incubated
379 with substrates (endogenous Lyn or Lyn-GFP constructs) bound to beads for 1 h at 30°C
380 with shaking. Samples were then washed four to five times with a buffer containing 50 […]
as §20, §21

Where [7] appears, read: cycloheximide 100 µg/mL 8 h, NMT1/2 KD relative to cycloheximide-treated control.
[8] abbreviates: IP from NMT1/2-depleted HeLa cells.

For `C[C@@H]1C[C@@H]([C@H](O)CC2CC(=O)NC(=O)C2)C(=O)[C@@H](C)C1` [Cycloheximide], in the experiment on Src [1] (setting [7]), the Src decrease was determined as 1.3 fold. Also, the Fyn decrease in the experiment with Fyn [2] (setting [7]) is 1.5 fold. The THOC7 decrease with THOC7 (cycloheximide 100 µg/mL 8 h) is reported as 1.1 fold. For the same molecule, in the experiment with Lyn [3] (setting [7]), the Lyn decrease was 2 fold.

With `CC(C)C[C@@H](C=O)NC(=O)[C@H](CC(C)C)NC(=O)[C@H](CC(C)C)NC(=O)OCc1ccccc1` [MG132] (Cbz-Leu-Leu-Leu-aldehyde), in the experiment with Src [1] (MG132 10 µM 4 h, NMT1/2 KD), the Src increase stood at 2 fold. In the experiment with Fyn [2] (MG132 10 µM 4 h, NMT1/2 KD), the Fyn increase is listed as 1.6 fold. Also, in the experiment on THOC7 (MG132 10 µM 4 h), the THOC7 increase came out at 1.1 fold. Further, in the experiment with Lyn [3] (MG132 10 µM 4 h, NMT1/2 KD), the Lyn increase came to 1.6 fold.

Turning to “WT: catalytically active E3 ligase complex of full-length CUL4A, DDB1, DCAF10 and RBX1”, the “Lyn ubiquitination, ratio relative to RBX1^mut” value is 2.18 fold with Lyn [4] (setting [8]) and 2.58 fold in the experiment on Lyn [4] (IP from control HeLa cells). Also, the “Src ubiquitination, ratio relative to RBX1^mut” value in the experiment with Src [5] (setting [8]) is recorded as 2.03 fold; in the experiment on Src [5] (IP from control HeLa cells) it was 3.0 fold. Further, the “Fyn ubiquitination, ratio relative to RBX1^mut” value with Fyn [6] (setting [8]) stood at 2.27 fold; in the experiment with Fyn [6] (IP from control HeLa cells), 2.73 fold.

With “RBX1^mut: catalytically inactive variant complex (RBX1 C75A, H77A)”, in the experiment with CUL4A-DDB1-DCAF10, the “In vitro ubiquitination (in words)” value was “failed to ubiquitinate any variant above background”.

For the origin of these results see paper PMC12775124, “CUL4A-DDB1-DCAF10 is an N-recognin for N-terminally acetylated Src kinases” (Nature Communications, 2026).
